{Atto647N} = Atto 647N fluorescent dye
Key:
[1] = Influx of fluorophore or ssDNA into GUVs with and without printed pore, confocal imaging; type: physicochemical; details: for influx into GUV containing a printed pore: GUV with printed hydrogel pore
Description: Representative confocal images of two adjacent GUVs (red, λex=488 nm) in the xy-(left) and an xz-plane (right, as indicated by white dashed line) are shown in FIG. 11c. […] The scalebar in the image of the xy-plane represents 20 μm.
Further representative confocal images of two adjacent GUVs, similar as described in FIG. 11c, are shown in FIG. 11d. […] The scalebar in the image of the xy-plane represents 20 μm.
Next, it was tested if the pores can transport larger and charged molecular cargo.
0.01 mg ml-1 Rhodamine B acrylate were added to the final solution for fluorescence microscopy.

[2] = Membrane permeability via fraction of successful printing attempts inside GUVs over time; details: not told
Description: The membrane permeability was determined by adding the respective components after incubation of the GUVs with the remaining components of the photoresist and quantifying the fraction of successful printing attempts, Nprint/Ntot, inside the GUVs over time (n=30 for each condition and time point). An exponential fit (black line) was used to determine the point in time of 50% success rate.
The resist was polymerized inside the GUV by two-photon 3D laser printing. […] The printing success rate was used as an indirect way to determine the membrane permeability of the non-fluorescent components. For this purpose, PEGDA or LAP was added to GUVs that were pre-incubated with the other resist components. Subsequently, the fraction of successful printing attempts, Npol/Ntot, was quantified for 30 GUVs per time point over the course of up to 100 minutes.
We use the interdependence of the permeability and the concentration inside of a GUV Cin [1] to determine the membrane permeability P via printing attempts:
where R is the GUV radius, Cout the concentration outside of the GUV and t the time.

Row | Molecule | influx into GUV containing a printed pore [1] | influx into GUV containing a printed pore ([1]; listed as single-stranded DNA) | influx into adjacent GUV without printed pore ([1]; GUV without pore) | Papp at 12 mg mL-1 [2]
1 | 5′-Atto 647N TTTTTTAATTTTT 3′ (DNA, 5' {Atto647N}, backbone not given here) [13 base-long single-stranded DNA, 13 base-long single-stranded DNA labelled with Atto647N] | can diffuse into the GUV across the printed pore | influx | does not show DNA import | –
2 | Cc1cc(C)c(C(=O)P(=O)([O-])c2ccccc2)c(C)c1.[Li+] [LAP, Lithium phenyl-2,4,6-trimethylbenzoylphosphinate] | – | – | – | 0.987 ± 0.325 nm/s

Source: patent publication US20240402608A1, “METHOD FOR NON-INVASIVE PRODUCTION OF DEFINED STRUCTURES INSIDE COMPARTMENTS AND COMPARTMENT” (MAX-PLANCK-GESELLSCHAFT ZUR FÖRDERUNG DER WISSENSCHAFTEN …, priority 2021, published 2024)
